From ChEMBL document CHEMBL4177632 come the findings set out here.

The target of data set [1] is Aldo-keto reductase family 1 member B1 (Rattus norvegicus) (UniProt P07943). Kind of data set: Inhibition of ALR2 in Wistar rat lens assessed as reduction in glucose induced-sorbitol accumulation by measuring sorbitol level preincubated for 30 mins followed by glucose addition measured after 3 hrs by resazurin dye based fluorescence assay. For orientation: Alamar Blue is a resazurin reagent that responds to reducing activity.

The target is the same in data set [2]. Briefly: Inhibition of ALR2 in Wistar rat lens assessed as reduction in glucose induced-sorbitol accumulation by measuring sorbitol level at 100 uM preincubated for 30 mins followed by glucose addition measured after 3 hrs by resazurin dye based fluorescence assay (reference value: 803.6 +/- 104.6 nmol/g).
Data set [3] shares this target. Briefly: Inhibition of ALR2 in Wistar rat lens assessed as reduction in glucose induced-sorbitol accumulation by measuring sorbitol level at 0.1 uM preincubated for 30 mins followed by glucose addition measured after 3 hrs by resazurin dye based fluorescence assay (reference value: 803.6 +/- 104.6 nmol/g).
The species named for a further data set is Rattus norvegicus. Briefly: Selectivity index, ratio of IC50 for ALR1 in Wistar rat kidney to IC50 for ALR2 in Wistar rat eye lens.
Data set [4] addresses Aldo-keto reductase family 1 member B1 (Rattus norvegicus) (UniProt P07943). Briefly: Inhibition of ALR2 in Wistar rat lens assessed as reduction in glucose induced-sorbitol accumulation by measuring sorbitol level at 1 uM preincubated for 30 mins followed by glucose addition measured after 3 hrs by resazurin dye based fluorescence assay (reference value: 803.6 +/- 104.6 nmol/g).

For data set [5], the system named is CCOC(=O)N1CCc2c(c3cc(OC)ccc3n2CC(=O)O)C1. Briefly: Inhibition of recombinant human AKR1B1 assessed as Km for D,L-glyceraldehyde substrate at 80 nM (reference value: 0.065+/- 0.003 […]).
Data set [6] shares this test system. Kind of data set: Inhibition of recombinant human AKR1B1 assessed as Km for D,L-glyceraldehyde substrate at 120 nM (reference value: 0.065+/- 0.003 […]).

One may read the Km as the concentration of substrate that gives half-maximal velocity.

As to `CCOC(=O)N1CCc2c(c3cc(OC)ccc3n2CC(=O)O)C1`, in data set [1], the inhibition entry is “Dose-dependent effect”. The Activity in data set [2] amounted to 249 nmol/g; in data set [3], 657 nmol/g; in data set [4] it was 440 nmol/g. The Ratio IC50 in the data set listed under Rattus norvegicus turned out to be 792.
Turning to `CC(=O)c1c(C)n(CC(=O)O)c2ccccc12`, in the data set listed under Rattus norvegicus, the Ratio IC50 turned out to be 66.
Turning to `O=C(O)Cn1c2c(c3ccccc31)CN(C(=O)C1CC1)CC2`, the Ratio IC50 in the data set filed under Rattus norvegicus was 131.
Same read-out and setting: the result for `Cc1c(C=O)c2ccccc2n1CC(=O)O` reads 35.
For the molecule “Aldo-keto reductase family 1 member B1 (Homo sapiens) (from UniProt P15121)”, the Michaelis constant (Km) in data set [5] came out at 36 µM; in data set [6], 22 µM.
Turning to `CCOC(=O)N1CCc2c(c3cc(C(=O)O)ccc3n2CC(=O)O)C1`, the Ratio IC50 in the data set listed under Rattus norvegicus amounted to 381.
Take `CC(=O)N1CCc2c(c3ccccc3n2CC(=O)O)C1`: in data set [1], the inhibition result was “Dose-dependent effect”. The Activity in data set [2] turned out to be 184 nmol/g; in data set [3] it was 756 nmol/g; in data set [4], 631 nmol/g. Besides, the Ratio IC50 in the data set listed under Rattus norvegicus was 1070.
